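Five concentrations, 48 hours, 96-well plates. At the GI50, growth is halved. TGI: concentration producing complete growth inhibition.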
Tests used:
Assay in all cases: inhibition of tumour cell growth, NCI panel, 48 h
SR leukemia = test system: SR leukemia
SN12C renal = test system: SN12C renal
ACHN renal = test system: ACHN renal
EKVX NSCLC = test system: EKVX NSCLC
NCI-H460 lung = test system: NCI-H460 lung
HT29 colon = test system: HT29 colon
DU-145 prostate = test system: DU-145 prostate
T-47D breast = test system: T-47D breast
HCT-116 colon = test system: HCT-116 colon
OVCAR-5 ovarian = test system: OVCAR-5 ovarian
OVCAR-8 ovarian = test system: OVCAR-8 ovarian
MALME-3M melanoma = test system: MALME-3M melanoma
CAKI-1 renal = test system: CAKI-1 renal
NCI-H226 lung = test system: NCI-H226 lung
A498 renal = test system: A498 renal
K-562 leukemia = test system: K-562 leukemia
OVCAR-4 ovarian = test system: OVCAR-4 ovarian
SF-268 CNS = test system: SF-268 CNS
OVCAR-3 ovarian = test system: OVCAR-3 ovarian
KM12 colon = test system: KM12 colon
RXF 393 renal = test system: RXF 393 renal
NCI/ADR-RES ovarian = test system: NCI/ADR-RES ovarian
UACC-257 melanoma = test system: UACC-257 melanoma
PC-3 prostate = test system: PC-3 prostate
UACC-62 melanoma = test system: UACC-62 melanoma
SNB-19 CNS = test system: SNB-19 CNS
SK-OV-3 ovarian = test system: SK-OV-3 ovarian
TK-10 renal = test system: TK-10 renal
SK-MEL-2 melanoma = test system: SK-MEL-2 melanoma
U251 CNS = test system: U251 CNS
MDA-MB-231 breast = test system: MDA-MB-231 breast
786-0 renal = test system: 786-0 renal
LOX IMVI melanoma = test system: LOX IMVI melanoma
MDA-MB-435 = test system: MDA-MB-435
COLO 205 colon = test system: COLO 205 colon
HS 578T breast = test system: HS 578T breast
SK-MEL-5 melanoma = test system: SK-MEL-5 melanoma
UO-31 renal = test system: UO-31 renal
BT-549 breast = test system: BT-549 breast
SNB-75 CNS = test system: SNB-75 CNS
MCF7 breast = test system: MCF7 breast
HCT-15 colon = test system: HCT-15 colon
NCI-H522 lung = test system: NCI-H522 lung
HCC-2998 colon = test system: HCC-2998 colon
SW-620 colon = test system: SW-620 colon
HL-60(TB) leukemia = test system: HL-60(TB) leukemia
M14 melanoma = test system: M14 melanoma
HOP-92 NSCLC = test system: HOP-92 NSCLC
RPMI-8226 leukemia = test system: RPMI-8226 leukemia
HOP-62 NSCLC = test system: HOP-62 NSCLC
IGROV1 ovarian = test system: IGROV1 ovarian
SF-539 CNS = test system: SF-539 CNS
NCI-H23 lung = test system: NCI-H23 lung
A549 NSCLC = test system: A549 NSCLC
CCRF-CEM leukemia = test system: CCRF-CEM leukemia
MOLT-4 leukemia = test system: MOLT-4 leukemia
SF-295 CNS = test system: SF-295 CNS
SK-MEL-28 melanoma = test system: SK-MEL-28 melanoma

COc1cccc2[nH]c3c4c(c5c(c3c12)C(=O)N(CN1CCN(C)CC1)C5=O)CCC4
GI50 (SR leukemia): 2.11 µM | TGI (SR leukemia): 11.1 µM | GI50 (SN12C renal): 11.2 µM | TGI (SN12C renal): 33.9 µM | GI50 (ACHN renal): 5.81 µM | TGI (ACHN renal): 36.4 µM | GI50 (EKVX NSCLC): 14.1 µM | TGI (EKVX NSCLC): 83.3 µM | GI50 (NCI-H460 lung): 6.35 µM | TGI (NCI-H460 lung): 25.8 µM | GI50 (HT29 colon): 8.99 µM | TGI (HT29 colon): 29.8 µM | GI50 (DU-145 prostate): 9.22 µM | TGI (DU-145 prostate): 21.6 µM | GI50 (T-47D breast): 4.62 µM | TGI (T-47D breast): > 73.9 µM | GI50 (HCT-116 colon): 13.2 µM | TGI (HCT-116 colon): 45.7 µM | GI50 (OVCAR-5 ovarian): 14.5 µM | TGI (OVCAR-5 ovarian): 44.6 µM | GI50 (OVCAR-8 ovarian): 8.6 µM | TGI (OVCAR-8 ovarian): 26.5 µM | GI50 (MALME-3M melanoma): 6.43 µM | TGI (MALME-3M melanoma): 63.2 µM | GI50 (CAKI-1 renal): 4.34 µM | TGI (CAKI-1 renal): 38.8 µM | GI50 (NCI-H226 lung): 9.46 µM | TGI (NCI-H226 lung): > 90.9 µM | GI50 (A498 renal): 2.73 µM | TGI (A498 renal): > 100 µM | GI50 (K-562 leukemia): 16.3 µM | TGI (K-562 leukemia): > 67.8 µM | GI50 (OVCAR-4 ovarian): 8.03 µM | TGI (OVCAR-4 ovarian): 26.9 µM | GI50 (SF-268 CNS): 13.5 µM | TGI (SF-268 CNS): > 52.3 µM | GI50 (OVCAR-3 ovarian): 13.7 µM | TGI (OVCAR-3 ovarian): 34.2 µM | GI50 (KM12 colon): 12.3 µM | TGI (KM12 colon): 49.7 µM | GI50 (RXF 393 renal): 3.45 µM | TGI (RXF 393 renal): 13.6 µM | GI50 (NCI/ADR-RES ovarian): 12.2 µM | TGI (NCI/ADR-RES ovarian): 37.5 µM | GI50 (UACC-257 melanoma): 14.8 µM | TGI (UACC-257 melanoma): 45.1 µM | GI50 (PC-3 prostate): 6.58 µM | TGI (PC-3 prostate): > 46.7 µM | GI50 (UACC-62 melanoma): 9.9 µM | TGI (UACC-62 melanoma): 30.9 µM | GI50 (SNB-19 CNS): 13.3 µM | TGI (SNB-19 CNS): 34.6 µM | GI50 (SK-OV-3 ovarian): 11.7 µM | TGI (SK-OV-3 ovarian): 29.8 µM | GI50 (TK-10 renal): 6.85 µM | TGI (TK-10 renal): 28.3 µM | GI50 (SK-MEL-2 melanoma): 22.7 µM | TGI (SK-MEL-2 melanoma): > 100 µM | GI50 (U251 CNS): 6.3 µM | TGI (U251 CNS): 21.8 µM | GI50 (MDA-MB-231 breast): 15 µM | TGI (MDA-MB-231 breast): 31.3 µM | GI50 (786-0 renal): 13.3 µM | TGI (786-0 renal): 31.8 µM | GI50 (LOX IMVI melanoma): 11.8 µM | TGI (LOX IMVI melanoma): 40.7 µM | GI50 (MDA-MB-435): 7.37 µM | TGI (MDA-MB-435): 30.7 µM | GI50 (COLO 205 colon): 11.4 µM | TGI (COLO 205 colon): 35.6 µM | GI50 (HS 578T breast): 18.2 µM | TGI (HS 578T breast): > 88.3 µM | GI50 (SK-MEL-5 melanoma): 8.26 µM | TGI (SK-MEL-5 melanoma): > 100 µM | GI50 (UO-31 renal): 2.76 µM | TGI (UO-31 renal): > 23.8 µM | GI50 (BT-549 breast): 19 µM | TGI (BT-549 breast): 99.1 µM | GI50 (SNB-75 CNS): 9.2 µM | TGI (SNB-75 CNS): 40.5 µM | GI50 (MCF7 breast): 9.27 µM | TGI (MCF7 breast): 39.7 µM | GI50 (HCT-15 colon): 7.33 µM | TGI (HCT-15 colon): 25.9 µM | GI50 (NCI-H522 lung): 8.95 µM | TGI (NCI-H522 lung): > 56.9 µM | GI50 (HCC-2998 colon): 15.6 µM | TGI (HCC-2998 colon): > 76 µM | GI50 (SW-620 colon): 13.6 µM | TGI (SW-620 colon): 38 µM | GI50 (HL-60(TB) leukemia): 19.6 µM | TGI (HL-60(TB) leukemia): > 75.1 µM | GI50 (M14 melanoma): 9.91 µM | TGI (M14 melanoma): > 80.4 µM | GI50 (HOP-92 NSCLC): 15.1 µM | TGI (HOP-92 NSCLC): 44.9 µM | GI50 (RPMI-8226 leukemia): 4.6 µM | TGI (RPMI-8226 leukemia): 23.8 µM | GI50 (HOP-62 NSCLC): 14.5 µM | TGI (HOP-62 NSCLC): 39.1 µM | GI50 (IGROV1 ovarian): 4.79 µM | TGI (IGROV1 ovarian): > 46.1 µM | GI50 (SF-539 CNS): 11.3 µM | TGI (SF-539 CNS): 26 µM | GI50 (NCI-H23 lung): 15 µM | TGI (NCI-H23 lung): > 72.5 µM | GI50 (A549 NSCLC): 8.49 µM | TGI (A549 NSCLC): 25.6 µM | GI50 (CCRF-CEM leukemia): 5.55 µM | TGI (CCRF-CEM leukemia): 33.3 µM | GI50 (MOLT-4 leukemia): 5.9 µM | TGI (MOLT-4 leukemia): 42.3 µM | GI50 (SF-295 CNS): 10.1 µM | TGI (SF-295 CNS): 25.6 µM | GI50 (SK-MEL-28 melanoma): 10.8 µM | TGI (SK-MEL-28 melanoma): 29.8 µM
